According to US20230346827A1 (priority 2020, published 2023):

How the values were obtained:
ALS patients = assay: ALSAQ-40 sub-scores in ALS patients, dextran sulfate 2 mg/kg s.c. weekly for ten weeks (Example 14); format: in vivo, human; conditions: after 10 weeks of treatment
Method: Dextran sulfate (ILB®, Tikomed AB, Viken, Sweden, WO 2016/076780) was administered at 2 mg/kg by […] subcutaneous injection once a week for ten weeks to 8 human patients suffering from ALS.
ALSAQ-40 was assessed pre-treatment and weekly thereafter for the 10 treatment weeks and for the visits at the follow-up period.

rats subjected to sTBI = assay: sTBI rats, LMW-DS 1, 5, 15 mg/kg s.c. 30 min post-TBI: HPLC of brain free amino acids (Example 4); format: in vivo, rat
[1] = 15 mg/kg repeated, 7 d post-sTBI

sodium salt of dextran sulfate [LMW-DS]
ALSAQ-40 ADL sub-score (ALS patients): 44.4 ± 24.7
ALSAQ-40 PM sub-score (ALS patients): 22.7 ± 20.2
decline of ALSAQ-40 ADL sub-score (ALS patients): 18.6%
decline of ALSAQ-40 PM sub-score (ALS patients): 16%
ALA (rats subjected to sTBI; 1 mg/kg, 2 d post-sTBI): 0.76 ± 0.08 nmol/g w.w.
ARG (rats subjected to sTBI; 1 mg/kg, 2 d post-sTBI): 0.13 ± 0.03 nmol/g w.w.
ASN (rats subjected to sTBI; 1 mg/kg, 2 d post-sTBI): 0.13 ± 0.02 nmol/g w.w.
ASP (rats subjected to sTBI; 1 mg/kg, 2 d post-sTBI): 4.17 ± 0.99 nmol/g w.w.
CITR (rats subjected to sTBI; 1 mg/kg, 2 d post-sTBI): 0.01 ± 0.01 nmol/g w.w.
GABA (rats subjected to sTBI; 1 mg/kg, 2 d post-sTBI): 1.87 ± 0.17 µmol/g w.w.
GLN (rats subjected to sTBI; 1 mg/kg, 2 d post-sTBI): 4.37 ± 0.59 nmol/g w.w.
GLU (rats subjected to sTBI; 1 mg/kg, 2 d post-sTBI): 12.52 ± 0.91 nmol/g w.w.
GLY (rats subjected to sTBI; 1 mg/kg, 2 d post-sTBI): 1.35 ± 0.26 nmol/g w.w.
HYS (rats subjected to sTBI; 1 mg/kg, 2 d post-sTBI): 0.08 ± 0.01 nmol/g w.w.
ILE (rats subjected to sTBI; 1 mg/kg, 2 d post-sTBI): 0.10 ± 0.02 nmol/g w.w.
L-Cystat (rats subjected to sTBI; 1 mg/kg, 2 d post-sTBI): 0.25 ± 0.05 nmol/g w.w.
LEU (rats subjected to sTBI; 1 mg/kg, 2 d post-sTBI): 0.09 ± 0.02 nmol/g w.w.
LYS (rats subjected to sTBI; 1 mg/kg, 2 d post-sTBI): 0.29 ± 0.11 nmol/g w.w.
MET (rats subjected to sTBI; 1 mg/kg, 2 d post-sTBI): 0.04 ± 0.01 nmol/g w.w.
ORN (rats subjected to sTBI; 1 mg/kg, 2 d post-sTBI): 0.02 ± 0.01 nmol/g w.w.
PHE (rats subjected to sTBI; 1 mg/kg, 2 d post-sTBI): 0.07 ± 0.03 nmol/g w.w.
SAH (rats subjected to sTBI; 1 mg/kg, 2 d post-sTBI): 0.07 ± 0.02 nmol/g w.w.
SER (rats subjected to sTBI; 1 mg/kg, 2 d post-sTBI): 0.91 ± 0.07 nmol/g w.w.
TAU (rats subjected to sTBI; 1 mg/kg, 2 d post-sTBI): 4.98 ± 0.47 nmol/g w.w.
THR (rats subjected to sTBI; 1 mg/kg, 2 d post-sTBI): 0.70 ± 0.15 nmol/g w.w.
TRP (rats subjected to sTBI; 1 mg/kg, 2 d post-sTBI): 0.02 ± 0.01 nmol/g w.w.
TYR (rats subjected to sTBI; 1 mg/kg, 2 d post-sTBI): 0.18 ± 0.03 nmol/g w.w.
VAL (rats subjected to sTBI; 1 mg/kg, 2 d post-sTBI): 0.07 ± 0.03 nmol/g w.w.
ALA (rats subjected to sTBI; 1 mg/kg, 7 d post-sTBI): 0.57 ± 0.06 nmol/g w.w.
ARG (rats subjected to sTBI; 1 mg/kg, 7 d post-sTBI): 0.13 ± 0.02 nmol/g w.w.
ASN (rats subjected to sTBI; 1 mg/kg, 7 d post-sTBI): 0.10 ± 0.02 nmol/g w.w.
ASP (rats subjected to sTBI; 1 mg/kg, 7 d post-sTBI): 4.17 ± 0.67 nmol/g w.w.
CITR (rats subjected to sTBI; 1 mg/kg, 7 d post-sTBI): 0.03 ± 0.01 nmol/g w.w.
GABA (rats subjected to sTBI; 1 mg/kg, 7 d post-sTBI): 1.73 ± 0.18 µmol/g w.w.
GLN (rats subjected to sTBI; 1 mg/kg, 7 d post-sTBI): 4.10 ± 0.42 nmol/g w.w.
GLU (rats subjected to sTBI; 1 mg/kg, 7 d post-sTBI): 12.14 ± 1.02 nmol/g w.w.
GLY (rats subjected to sTBI; 1 mg/kg, 7 d post-sTBI): 0.98 ± 0.20 nmol/g w.w.
L-Cystat (rats subjected to sTBI; 1 mg/kg, 7 d post-sTBI): 0.24 ± 0.04 nmol/g w.w.
MET (rats subjected to sTBI; 1 mg/kg, 7 d post-sTBI): 0.03 ± 0.01 nmol/g w.w.
ORN (rats subjected to sTBI; 1 mg/kg, 7 d post-sTBI): 0.01 ± 0.01 nmol/g w.w.
SAH (rats subjected to sTBI; 1 mg/kg, 7 d post-sTBI): 0.04 ± 0.01 nmol/g w.w.
SER (rats subjected to sTBI; 1 mg/kg, 7 d post-sTBI): 0.92 ± 0.16 nmol/g w.w.
THR (rats subjected to sTBI; 1 mg/kg, 7 d post-sTBI): 0.71 ± 0.12 nmol/g w.w.
ALA (rats subjected to sTBI; 5 mg/kg, 2 d post-sTBI): 0.79 ± 0.08 nmol/g w.w.
ARG (rats subjected to sTBI; 5 mg/kg, 2 d post-sTBI): 0.13 ± 0.03 nmol/g w.w.
ASN (rats subjected to sTBI; 5 mg/kg, 2 d post-sTBI): 0.17 ± 0.03 nmol/g w.w.
ASP (rats subjected to sTBI; 5 mg/kg, 2 d post-sTBI): 4.15 ± 0.95 nmol/g w.w.
CITR (rats subjected to sTBI; 5 mg/kg, 2 d post-sTBI): 0.02 ± 0.01 nmol/g w.w.
GABA (rats subjected to sTBI; 5 mg/kg, 2 d post-sTBI): 1.99 ± 0.18 µmol/g w.w.
GLN (rats subjected to sTBI; 5 mg/kg, 2 d post-sTBI): 4.55 ± 0.44 nmol/g w.w.
GLU (rats subjected to sTBI; 5 mg/kg, 2 d post-sTBI): 11.93 ± 0.55 nmol/g w.w.
GLY (rats subjected to sTBI; 5 mg/kg, 2 d post-sTBI): 1.43 ± 0.28 nmol/g w.w.
HYS (rats subjected to sTBI; 5 mg/kg, 2 d post-sTBI): 0.11 ± 0.02 nmol/g w.w.
ILE (rats subjected to sTBI; 5 mg/kg, 2 d post-sTBI): 0.10 ± 0.02 nmol/g w.w.
L-Cystat (rats subjected to sTBI; 5 mg/kg, 2 d post-sTBI): 0.31 ± 0.06 nmol/g w.w.
LEU (rats subjected to sTBI; 5 mg/kg, 2 d post-sTBI): 0.10 ± 0.02 nmol/g w.w.
LYS (rats subjected to sTBI; 5 mg/kg, 2 d post-sTBI): 0.37 ± 0.14 nmol/g w.w.
MET (rats subjected to sTBI; 5 mg/kg, 2 d post-sTBI): 0.05 ± 0.01 nmol/g w.w.
ORN (rats subjected to sTBI; 5 mg/kg, 2 d post-sTBI): 0.01 ± 0.01 nmol/g w.w.
PHE (rats subjected to sTBI; 5 mg/kg, 2 d post-sTBI): 0.07 ± 0.03 nmol/g w.w.
SAH (rats subjected to sTBI; 5 mg/kg, 2 d post-sTBI): 0.07 ± 0.02 nmol/g w.w.
SER (rats subjected to sTBI; 5 mg/kg, 2 d post-sTBI): 0.91 ± 0.07 nmol/g w.w.
TAU (rats subjected to sTBI; 5 mg/kg, 2 d post-sTBI): 5.15 ± 0.49 nmol/g w.w.
THR (rats subjected to sTBI; 5 mg/kg, 2 d post-sTBI): 0.77 ± 0.17 nmol/g w.w.
TRP (rats subjected to sTBI; 5 mg/kg, 2 d post-sTBI): 0.03 ± 0.01 nmol/g w.w.
TYR (rats subjected to sTBI; 5 mg/kg, 2 d post-sTBI): 0.20 ± 0.03 nmol/g w.w.
VAL (rats subjected to sTBI; 5 mg/kg, 2 d post-sTBI): 0.08 ± 0.03 nmol/g w.w.
ALA (rats subjected to sTBI; 5 mg/kg, 7 d post-sTBI): 0.44 ± 0.05 nmol/g w.w.
ARG (rats subjected to sTBI; 5 mg/kg, 7 d post-sTBI): 0.15 ± 0.02 nmol/g w.w.
ASN (rats subjected to sTBI; 5 mg/kg, 7 d post-sTBI): 0.10 ± 0.02 nmol/g w.w.
ASP (rats subjected to sTBI; 5 mg/kg, 7 d post-sTBI): 3.63 ± 0.59 nmol/g w.w.
CITR (rats subjected to sTBI; 5 mg/kg, 7 d post-sTBI): 0.03 ± 0.01 nmol/g w.w.
GABA (rats subjected to sTBI; 5 mg/kg, 7 d post-sTBI): 1.63 ± 0.17 µmol/g w.w.
GLN (rats subjected to sTBI; 5 mg/kg, 7 d post-sTBI): 3.86 ± 0.40 nmol/g w.w.
GLU (rats subjected to sTBI; 5 mg/kg, 7 d post-sTBI): 11.82 ± 0.99 nmol/g w.w.
GLY (rats subjected to sTBI; 5 mg/kg, 7 d post-sTBI): 0.88 ± 0.15 nmol/g w.w.
L-Cystat (rats subjected to sTBI; 5 mg/kg, 7 d post-sTBI): 0.26 ± 0.04 nmol/g w.w.
MET (rats subjected to sTBI; 5 mg/kg, 7 d post-sTBI): 0.04 ± 0.01 nmol/g w.w.
ORN (rats subjected to sTBI; 5 mg/kg, 7 d post-sTBI): 0.01 ± 0.01 nmol/g w.w.
SAH (rats subjected to sTBI; 5 mg/kg, 7 d post-sTBI): 0.04 ± 0.01 nmol/g w.w.
SER (rats subjected to sTBI; 5 mg/kg, 7 d post-sTBI): 0.83 ± 0.14 nmol/g w.w.
THR (rats subjected to sTBI; 5 mg/kg, 7 d post-sTBI): 0.71 ± 0.15 nmol/g w.w.
ALA (rats subjected to sTBI; [1]): 0.47 ± 0.05 nmol/g w.w.
ARG (rats subjected to sTBI; [1]): 0.19 ± 0.02 nmol/g w.w.
ASN (rats subjected to sTBI; [1]): 0.10 ± 0.02 nmol/g w.w.
ASP (rats subjected to sTBI; [1]): 2.42 ± 0.39 nmol/g w.w.
